System: AMP-activated protein kinase (AMPK)
Assay: p-AMPK expression level in L6 cell line by Western blot
Type: cell-based
Details: L6 cells, 2 hours compound treatment
Description: Evaluation of p-AMPK and p-ACC expression level in L6 cell line by Western-Blot
This method evaluates the changes of AMP-activated protein kinase (AMPK) and ACC (acetyl-CoA carboxylase) activity by small molecular modulators through detecting the level of p-AMPK and p-ACC proteins in L6 cells using Western blot.
L6 cells are maintained in DMEM medium supplemented with 10% FBS in 10-cm dishes. Prior to compounds treatment, L6 cells are seeded in 12-well-plates at concentration of 3×10^4 cells per well. After 24 hours of incubation in 12-well plates, L6 cells are differentiated by replacing the 10% FBS-DMEM medium with 2% FBS-DMEM. Differentiation usually takes 5 days, during which the culture medium is changed every 2 days.
The compound concentrations typically range from 32 μM to 0.5 μM with 2-fold dilution in 2 ml DMEM and 7 doses. The final DMSO concentration is 0.4%. Berberine is used as a positive control at concentration of 16 μM. Before compound treatment, starve L6 cells for 2 hours by replacing the medium with DMEM, and then gently aspirate the media from each well. Add the compounds into the plates and incubate at 37 degree 5% CO2 for 2 hours.
Prepare lysis buffer (RIPA buffer with protease-inhibitors and phosphorate-inhibitors) and place it on ice. After two hour's compound treatment, aspirate the medium from 12-well plates, add 70 ul lysis buffer to each well and keep the plates on ice for 5 min. Then scrape the cell lysate off the plates and transfer it to 1.5 ml eppendorf tubes. Keep the tube on ice for more 10 min, centrifugate the lysate at 13000 rpm, 4 degrees for 15 min and transfer the supernatant to clean tubes.
Determine protein concentration for each sample using Quickstart Bradford protein quantitation kit. Mix 20 ug protein sample with 4 times loading buffer, heat them at 100° C. for 5 min, store the sample in −80° C. or perform Western blot assay directly. For Western blot assay, load 20 ug samples and 10 ul Pre-stained Protein Maker into 4-12% SDS-PAGE gradient gel. Run the samples at 100 V in the stacking gel and at 120 V in resolving gel until the Bromophenol dye reaches the bottom. Transfer the electrophoresed proteins to a PVDF membrane using Bio-Rad's Transblot for 120 min at 300 mA. Following the completion of transfer, the membrane is blocked with 5% non-fat milk for 2 hours at room temperature before incubated with primary antibody (p-AMPK and p-ACC) at 4° C. overnight. On the next day wash the membrane twice with TBST, add secondary antibody and incubate for 1 hour at room temperature. Wash the membrane twice with TBST. Develop p-AMPK and p-ACC protein expression level on the film in dark room with Amersham ECL plus kit. The bands of each sample are quantitated by Bio-Rad system, The AC1.3 value is analyzed using Prism 5.0.

Row | SMILES | Activity AC1.3 (AMPKp)
1 | CS(=O)(=O)NC(=O)c1ccc2c(c1)C1(CCCC1)CC(c1cccc(N3CCOCC3)c1)N2 (centres unmarked) [Example 5, N-(methylsulfonyl)-2′-(3-morpholinophenyl)-2′,3′-dihydro-1′H-spiro[cyclopentane-1,4′-quinoline]-6′-carboxamide] | 9 µM
2 | CC1(C)CC(c2cc(N3CCOCC3)ccc2Cl)Nc2ccc(C(=O)NS(=O)(=O)C3CC3)cc21 (centres unmarked) [Example 25, Cyclopropanesulfonic acid [2-(2-chloro-5-morpholin-4-yl-phenyl)-4,4-dimethyl-1,2,3,4-tetrahydro-quinoline-6-carbonyl]-amide] | 0.21 µM
3 | Cc1ccc(N2CCOC2=O)cc1C1CC(C)(C)c2cc(C(=O)NS(C)(=O)=O)ccc2N1 (centres unmarked) [Example 27, N-{4,4-dimethyl-2-[2-methyl-5-(2-oxo-oxazolidin-3-yl)-phenyl]-1,2,3,4-tetrahydro-quinoline-6-carbonyl}-methanesulfonamide] | 0.01 µM
4 | Cc1ccc(N2CCOC2=O)cc1C1CC(C)(C)c2cc(C(=O)NS(=O)(=O)C3CC3)ccc2N1 (centres unmarked) [Example 28, Cyclopropanesulfonic acid {4,4-dimethyl-2-[2-methyl-5-(2-oxo-oxazolidin-3-yl)-phenyl]-1,2,3,4-tetrahydro-quinoline-6-carbonyl}-amide] | 0.02 µM
5 | CC1(C)CC(c2cccc(C(N)=O)c2)Nc2ccc(C(=O)NS(C)(=O)=O)cc21 (centres unmarked) [Example 32, 3-(6-Methanesulfonylaminocarbonyl-4,4-dimethyl-1,2,3,4-tetrahydroquinolin-2-yl)-benzamide] | 0.002 µM
6 | CC1(C)CC(c2cccc(C#N)c2)Nc2ccc(C(=O)NS(C)(=O)=O)cc21 (centres unmarked) [Example 33, N-[2-(3-cyano-phenyl)-4,4-dimethyl-1,2,3,4-tetrahydro-quinoline-6-carbonyl]-methanesulfonamide] | 0.08 µM
7 | CC1(C)CC(c2cccc(C(N)=O)c2)Nc2ccc(C(=O)NS(=O)(=O)C3CC3)cc21 (centres unmarked) [Example 34, 3-(6-Cyclopropanesulfonylaminocarbonyl-4,4-dimethyl-1,2,3,4-tetrahydro-quinolin-2-yl)-benzamide] | 0.08 µM
8 | CC1(C)CC(c2cccc(C#N)c2)Nc2ccc(C(=O)NS(=O)(=O)C3CC3)cc21 (centres unmarked) [Example 35, Cyclopropanesulfonic acid [2-(3-cyano-phenyl)-4,4-dimethyl-1,2,3,4-tetrahydro-quinoline-6-carbonyl]-amide] | 0.24 µM
9 | Cc1ccc(N2CCN(c3cncc(C4CC(C)(C)c5cc(C(=O)NS(=O)(=O)C6CC6)ccc5N4)c3)CC2)c(C)c1 (centres unmarked) [Example 50, Cyclopropanesulfonic acid (2-{5-[4-(2,4-dimethyl-phenyl)-piperazin-1-yl]-pyridin-3-yl}-4,4-dimethyl-1,2,3,4-tetrahydro-quinoline-6-carbonyl)-amide] | 0.16 µM
10 | CN1CCN(c2cccc(C3CC(C)(C)c4cc(C(=O)NS(=O)(=O)C5CC5)ccc4N3)c2)CC1 (centres unmarked) [Example 51, Cyclopropanesulfonic acid {4,4-dimethyl-2-[3-(4-methyl-piperazin-1-yl)-phenyl]-1,2,3,4-tetrahydro-quinoline-6-carbonyl}-amide] | 0.18 µM
11 | CC1(C)CC(c2cccc(N3CCCC3)c2)Nc2ccc(C(=O)NS(=O)(=O)C3CC3)cc21 (centres unmarked) [Example 52, Cyclopropanesulfonic acid [4,4-dimethyl-2-(3-pyrrolidin-1-yl-phenyl)-1,2,3,4-tetrahydro-quinoline-6-carbonyl]-amide] | 0.55 µM
12 | CC1(C)CC(c2cncc(N3CCOCC3)c2)Nc2ccc(C(=O)NS(=O)(=O)C3CC3)cc21 (centres unmarked) [Example 54, Cyclopropanesulfonic acid [4,4-dimethyl-2-(5-morpholin-4-yl-pyridin-3-yl)-1,2,3,4-tetrahydro-quinoline-6-carbonyl]-amide] | 0.03 µM
13 | CC1(C)CC(c2cccc(N3CCOCC3)c2)Nc2c(C(=O)NS(C)(=O)=O)cc(F)cc21 (centres unmarked) [Example 56, N-[6-fluoro-4,4-dimethyl-2-(3-morpholin-4-yl-phenyl)-1,2,3,4-tetrahydro-quinoline-8-carbonyl]-methanesulfonamide] | 0.03 µM
14 | CN(C)c1cccc(C2CC(C)(C)c3cc(Cl)cc(C(=O)NS(=O)(=O)C4CC4)c3N2)c1 (centres unmarked) [Example 61, Cyclopropanesulfonic acid [6-chloro-2-(3-dimethylamino-phenyl)-4,4-dimethyl-1,2,3,4-tetrahydro-quinoline-8-carbonyl]-amide] | 0.1 µM
15 | CC1(C)CC(c2cccc(N3CCOC3=O)c2)Nc2c(C(=O)NS(C)(=O)=O)cc(Cl)cc21 (centres unmarked) [Example 64, N-{6-chloro-4,4-dimethyl-2-[3-(2-oxo-oxazolidin-3-yl)-phenyl]-1,2,3,4-tetrahydro-quinoline-8-carbonyl}-methanesulfonamide] | 0.1 µM
16 | Cc1cc(C(=O)NS(=O)(=O)C2CC2)cc2c1NC(c1cccc(N3CCOCC3)c1)CC2(C)C (centres unmarked) [Example 66, Cyclopropanesulfonic acid [4,4,8-trimethyl-2-(3-morpholin-4-yl-phenyl)-1,2,3,4-tetrahydro-quinoline-6-carbonyl]-amide] | 12.8 µM
17 | CN1CCN(c2cccc(C3CC(C)(C)c4cccc(C(=O)NS(C)(=O)=O)c4N3)c2)CC1 (centres unmarked) [Example 67, N-{4,4-dimethyl-2-[3-(4-methyl-piperazin-1-yl)-phenyl]-1,2,3,4-tetrahydro-quinoline-8-carbonyl}-methanesulfonamide] | 0.02 µM
18 | Cc1ccc(N2CCN(c3cccc(C4CC(C)(C)c5cc(F)cc(C(=O)NS(C)(=O)=O)c5N4)c3)CC2)cc1 (centres unmarked) [Example 68, N-{6-fluoro-4,4-dimethyl-2-[3-(4-p-tolyl-piperazin-1-yl)-phenyl]-1,2,3,4-tetrahydro-quinoline-8-carbonyl}-methanesulfonamide] | 0.003 µM
19 | CC1(C)CC(c2cccc(N3CCCC3)c2)Nc2c(C(=O)NS(C)(=O)=O)cc(Cl)cc21 (centres unmarked) [Example 71, N-[6-chloro-4,4-dimethyl-2-(3-pyrrolidin-1-yl-phenyl)-1,2,3,4-tetrahydro-quinoline-8-carbonyl]-methanesulfonamide] | 0.08 µM
20 | CC1(C)CC(c2ccc(F)c(Cl)c2)Nc2ccc(C(=O)NS(=O)(=O)C3CC3)nc21 (centres unmarked) [Example 78, Cyclopropanesulfonic acid [6-(3-chloro-4-fluoro-phenyl)-8,8-dimethyl-5,6,7,8-tetrahydro-[1,5]naphthyridine-2-carbonyl]-amide] | 28.9 µM
21 | CC1(C)CC(c2cccc(N3CCOCC3)c2)Nc2ccc(C(=O)NS(=O)(=O)C3CC3)nc21 (centres unmarked) [Example 79, Cyclopropanesulfonic acid [8,8-dimethyl-6-(3-morpholin-4-yl-phenyl)-5,6,7,8-tetrahydro-[1,5]naphthyridine-2-carbonyl]-amide] | 4.46 µM
22 | CC1(C)CC(c2ccc(F)c(Cl)c2)Nc2ccc(C(=O)NS(C)(=O)=O)nc21 (centres unmarked) [Example 81, N-[6-(3-chloro-4-fluoro-phenyl)-8,8-dimethyl-5,6,7,8-tetrahydro-[1,5]naphthyridine-2-carbonyl]-methanesulfonamide] | 0.43 µM
23 | CC(C)(Nc1cccc(C2CC(C)(C)c3cc(S(=O)(=O)N4CCOCC4)ccc3N2)c1)C(=O)O (centres unmarked) [Example 82, 2-{3-[4,4-Dimethyl-6-(morpholine-4-sulfonyl)-1,2,3,4-tetrahydro-quinolin-2-yl]-phenylamino}-2-methyl-propionic acid] | 0.02 µM
24 | CC1(C)CC(c2cccc(NC3(C(=O)O)CC3)c2)Nc2ccc(S(=O)(=O)N3CCOCC3)cc21 (centres unmarked) [Example 83, 1-{3-[4,4-Dimethyl-6-(morpholine-4-sulfonyl)-1,2,3,4-tetrahydro-quinolin-2-yl]-phenylamino}-cyclopropanecarboxylic acid] | 0.01 µM
25 | CC1(C)CC(c2cccc(NC3(C(=O)O)CC3)c2)Nc2ccc(S(=O)(=O)NC3CCC3)cc21 (centres unmarked) [Example 84, 1-[3-(6-Cyclobutylsulfamoyl-4,4-dimethyl-1,2,3,4-tetrahydro-quinolin-2-yl)-phenylamino]-cyclopropanecarboxylic acid] | 0.2 µM
26 | CC(C)(Nc1cccc(C2CC(C)(C)c3cc(S(=O)(=O)NC4CCC4)ccc3N2)c1)C(=O)O (centres unmarked) [Example 85, 2-[3-(6-Cyclobutylsulfamoyl-4,4-dimethyl-1,2,3,4-tetrahydro-quinolin-2-yl)-phenylamino]-2-methyl-propionic acid] | 0.03 µM

— patent publication US8809369B2, “Tetrahydroquinoline derivatives” (Hoffmann-La Roche Inc., priority 2011, dated 2014)
